# Test results from US5698567A, “Heterocyclic spiro compounds” (Adir Et Compagnie, priority 1995, dated 1997).
# Where a name gives a salt, the structure may show the parent alone.
# Columns and labels:
# [1] = tested on: synthesis of PGE2 by the peritoneal PMN of rats; assay: Inhibition of the synthesis of PGE2 by the peritoneal PMN of rats in vitro; assay type: cell-based, rat; conditions: A23187; for inhibition at 100 µM: 10^-4 M; for inhibition at 100 µM / inhibition at 10 µM: rat peritoneal PMN; for inhibition at 10 µM: 10^-5 M; for IC50: rat peritoneal PMN in vitro
# Description: (§1) 5-Lipoxygenase-inhibiting activity was determined on peritoneal leukocytes of rats. Leukocytosis is induced in male OFA rats (IFFA CREDO) weighing 200-250 g by the intraperitoneal injection of 12% sodium caseinate. 18 hours later, the cells are collected by washing the abdominal cavity. The number of cells is adjusted to 2×10^6 /ml.
# (§2) The cell suspension is incubated for 10 minutes at 37° C. in the presence of Ca^2+ 5×10^-4 M and Mg^2+ 2×10^-3 M and of various concentrations of the test products. The cells are then stimulated with the calcium ionophore A23187 at a concentration of 10^-6 M for 5 minutes at 37° C. Controls are carded out by incubating the cells with the solvent for the products: 2% DMSO.
# (§3) Metabolism of arachidonic acid by the peritoneal PMN of rats stimulated
# (§4) for 5 minutes in vitro by the calcium ionophore (A23187): 10^-6 M.
# (§5) Incubation of the products with the cells for 10 minutes prior to
# (§6) stimulation with the ionophore.
# 5-lipoxygenase [2] = assay: Inhibition of the synthesis of LTB4 in total blood of rats ex vivo (5-lipoxygenase-inhibiting activity); design: species or system rat; conditions: 60 μmol/kg p.o., 1 h; A23187 5 × 10^-5 M, n = 8
# Description: 1.2 Determination of 5-lipoxygenase-inhibiting activity ex vivo (see Brideau C., Chan C., Charleson S., Denis D. et al. Pharmacology of MK-0591 (3-[1-(4-chlorobenzyl)-3-(t-butyl-thio)-5(quinolin-2-yl-methoxy)-indol-2-yl]-2,2-dimethyl propanoic acid), a Potent, Orally Active Leukotriene Biosynthesis Inhibitor. Can. J. Physiol. Pharmacol. Vol. 70, p. 799-807, 1992).
# Inhibition of the biosynthesis of leukotrienes ex vivo following oral administration of the compounds was determined by studying the production of leukotrienes on total blood of rats stimulated in vitro by the calcium ionophore at time 1 hour after oral administration of the compounds.
# The various products are administered in suspension in hydroxyethylcellulose: 0.5% H.E.C. at a dose of 60 μmol/kg. Each product is studied on a group of 8 different animals. A control group receives 0.5% H.E.C. only. After intracardial removal of the blood from each rat (male Sprague Dawley rats weighing 150-200 g IFFA CREDO), 1 ml of heparinised blood is incubated with the calcium ionophore A23 187 at a concentration of 5×10^-5 M for 10 minutes at 37° C. The blood is then centrifuged immediately and 100 μl of plasma are extracted in 400 μl of methanol. After centrifugation, the supernatant is evaporated to dryness under N2, the dry residue is taken up in buffer solution, and the LTB4 is assayed by the E.I.A. method (Stallergenes France).
# The percentage inhibition is expressed as follows: [formula] 2/Results
# Average relative to all controls n = 31
# Products administered p.o. 1 hour before removal of blood n = 8
# Total blood of rats stimulated for 10 minutes in vitro by the calcium
# 5-lipoxygenase [3] = assay: Inhibition of the synthesis of LTB4 by the peritoneal PMN of rats in vitro (5-lipoxygenase-inhibiting activity); assay type: cell-based, rat; conditions: rat peritoneal PMN, A23187 10^-6 M
# Excerpt: 1.1 Determination of 5-1ipoxygenase-inhibiting activity in vitro (see Goldyne M. E., Burrish G. F., Poubelle P. and Borgeat P., Arachidonic Acid Metabolism among human mononuclear leukocytes. The Journal of Biological Chemistry. Vol. 259, N° 4, p. 8815-8819, 1984, and New Chang C. and Gin Wensu. Stimulation of 5-Lipoxygenase Activity in Polymorphonuclear Leukocytes of Rats by Caseinate Treatment. Biochemical Pharmacology. Vol. 36, N° 8, p. 3033-3036, 1987).
# as §1, §2
# After stopping the reaction at +4° C. and centrifugation, the quantity of LTB4 in ng/2×10^6 cells in the supernatants is determined by the E.I.A. method (Statlergenes France). The percentage inhibition is calculated as follows: [formula]
# as §3, §4, §5, §6
structure (smiles),measurement,setting,value
"O=C1NCC2(CCN(CC(c3ccc(Cl)cc3)c3ccc(OCc4ccc5ccccc5n4)cc3)CC2)O1 (racemic) [Example 8, (R,S)-8-{2-(4-chlorophenyl)-2-[4-(quinol-2-ylmethoxy)phenyl]ethyl}-3,8-diaza-1-oxa-2-oxospiro[4,5]decane dihydrochloride]",inhibition at 100 µM,[1],72%
same,inhibition at 10 µM,[1],32%
same,% Inhibition of the synthesis of LTB4 in total blood of rats ex vivo,5-lipoxygenase [2],46%
same,LTB4 % Inhibition,5-lipoxygenase [3]; 4.10^-8 M,85%
same,LTB4 % Inhibition,5-lipoxygenase [3]; 10^-6 M,100%
same,LTB4 % Inhibition,5-lipoxygenase [3]; 10^-7 M,100%
same,LTB4 % Inhibition,5-lipoxygenase [3]; 10^-8 M,22%
"O=C1NCC2(CCN(C(c3ccc(Cl)cc3)c3ccc(OCc4ccc5ccccc5n4)cc3)CC2)O1 (racemic) [Example 22, (R,S)-8-{(4-chlorophenyl)-[4-(quinol-2-ylmethoxy)phenyl]methyl}-3,8-diaza-1-oxa-2-oxospiro[4,5]decane dihydrochloride]",inhibition at 100 µM,[1],4%
same,inhibition at 10 µM,[1],6%
same,IC50,[1],> 100 µM
same,% Inhibition of the synthesis of LTB4 in total blood of rats ex vivo,5-lipoxygenase [2],17%
same,LTB4 % Inhibition,5-lipoxygenase [3]; 4.10^-8 M,76%
same,LTB4 % Inhibition,5-lipoxygenase [3]; 10^-6 M,100%
same,LTB4 % Inhibition,5-lipoxygenase [3]; 10^-7 M,97%
same,LTB4 % Inhibition,5-lipoxygenase [3]; 10^-8 M,18%
"O=C1NCC2(CCN(C(c3ccccc3)c3ccc(OCc4ccc5ccccc5n4)cc3)CC2)O1 (racemic) [Example 24, (R,S)-8-{phenyl-[4-(quinol-2-ylmethoxy)phenyl]methyl}-3,8-diaza-1-oxa-2-oxospiro[4,5]decane]",inhibition at 100 µM,[1],44%
same,inhibition at 10 µM,[1],19%
same,IC50,[1],> 100 µM
same,% Inhibition of the synthesis of LTB4 in total blood of rats ex vivo,5-lipoxygenase [2],41%
same,LTB4 % Inhibition,5-lipoxygenase [3]; 4.10^-8 M,56%
same,LTB4 % Inhibition,5-lipoxygenase [3]; 10^-7 M,100%
"O=C1NCC2(CCN(CC(Cc3ccccc3)c3ccc(OCc4ccc5ccccc5n4)cc3)CC2)O1 (racemic) [Example 32, (R,S)-8-{3-phenyl-2-[4-(quinol-2-ylmethoxy)phenyl]propyl}-3,8-diaza-1-oxa-2-oxospiro[4,5]decane]",inhibition at 100 µM,[1],92%
same,% Inhibition of the synthesis of LTB4 in total blood of rats ex vivo,5-lipoxygenase [2],55%
same,LTB4 % Inhibition,5-lipoxygenase [3]; 4.10^-8 M,24%
same,LTB4 % Inhibition,5-lipoxygenase [3]; 10^-6 M,100%
same,LTB4 % Inhibition,5-lipoxygenase [3]; 10^-7 M,78%
"O=C1NCC2(CCN(CC(CCc3ccccc3)c3ccc(OCc4ccc5ccccc5n4)cc3)CC2)O1 (racemic) [Example 33, (R,S)-8-{4-phenyl-2-[4-(quinol-2-ylmethoxy)phenyl]butyl}-3,8-diaza-1-oxa-2-oxospiro[4,5]decane]",inhibition at 100 µM,[1],94%
same,inhibition at 10 µM,[1],7%
same,% Inhibition of the synthesis of LTB4 in total blood of rats ex vivo,5-lipoxygenase [2],48%
same,LTB4 % Inhibition,5-lipoxygenase [3]; 4.10^-8 M,54%
same,LTB4 % Inhibition,5-lipoxygenase [3]; 10^-7 M,86%
same,LTB4 % Inhibition,5-lipoxygenase [3]; 10^-8 M,6%
"O=C1NCC2(CCN(CC(Cc3ccc(Cl)cc3)c3ccc(OCc4ccc5ccccc5n4)cc3)CC2)O1 (racemic) [Example 34, (R,S)-8-{3-(4-chlorophenyl)-2-[4-(quinol-2-ylmethoxy)phenyl]propyl}-3,8-diaza-1-oxa-2-oxospiro[4,5]decane hydrochloride]",inhibition at 100 µM,[1],6%
same,inhibition at 10 µM,[1],2%
same,IC50,[1],> 100 µM
same,% Inhibition of the synthesis of LTB4 in total blood of rats ex vivo,5-lipoxygenase [2],58%
same,LTB4 % Inhibition,5-lipoxygenase [3]; 4.10^-8 M,56%
same,LTB4 % Inhibition,5-lipoxygenase [3]; 10^-6 M,100%
same,LTB4 % Inhibition,5-lipoxygenase [3]; 10^-7 M,72%
same,LTB4 % Inhibition,5-lipoxygenase [3]; 10^-8 M,12%
